Measurements taken from patent publication US20250136594A1 (Tango Therapeutics, Inc., priority 2022, published 2025).
Read-outs that look alike come from different tables or passages of the source.

Legend:
[1] = test system: SDMA in HAP1 MTAP-deleted (MTAP-null) cell line (PRMT5 inhibition); assay: SDMA in-cell western assay, HAP1 MTAP-deleted cell line; settings: for Hap1 MTAP intact/deleted ratio: ratio of SDMA IC50 in HAP1 MTAP-intact to HAP1 MTAP-deleted cell line
Excerpt: (§1) HAP1 MTAP-intact is a cell line in which endogenous levels of MTAP are expressed, and HAP1 MTAP-deleted is an MTAP-null cell line.

[2] = test system: HAP1 MTAP-deleted cell line; assay: Viability assay, HAP1 MTAP-deleted cell line; format: cell-based; settings: viability assay, HAP1 MTAP-deleted cell line, read-out: Hap1 MTAP deleted viability IC50
[3] = test system: SDMA in HAP1 MTAP-intact cell line (PRMT5 inhibition); assay: SDMA in-cell western assay, HAP1 MTAP-intact cell line
Excerpt: as §1

[4] = Homo sapiens, HAP1, read-out: Hap1 MTAP deleted IC50
[5] = Homo sapiens, HAP1, read-out: Hap1 MTAP deleted IC90
[6] = Homo sapiens, HAP1, read-out: Hap1 MTAP intact IC50

Row | IC50 [1, 4] [nM] | IC90 [1, 5] [nM] | IC50 [3, 6] [nM] | IC50 ([1]; read-out: Hap1 MTAP deleted IC50, SDMA in-cell western, HAP1 MTAP-deleted cell line) [nM] | IC90 ([1]; read-out: Hap1 MTAP deleted IC90, SDMA in-cell western, HAP1 MTAP-deleted cell line) [nM] | IC50 ([3]; read-out: Hap1 MTAP intact IC50, SDMA in-cell western, HAP1 MTAP-intact cell line) [nM] | SMILES | Hap1 MTAP intact/deleted ratio [1] | IC50 ([2]; Homo sapiens) [nM] | IC50 [2] [nM]
1 | < 5 | < 75 | 5 to 50 | – | – | – | CC[C@@H](C)CN(Cc1ccc(C(F)(F)F)cn1)C(=O)C(=O)Nc1cnc(N)c2cn[nH]c12 [Compound 75, (R)—N^1-(4-amino-1H-pyrazolo[4,3-c]pyridin-7-yl)-N^2-(2-methylbutyl)-N^2-((5-(trifluoromethyl)pyridin-2-yl)methyl)oxalamide] | C (IC50 ratio of less than 15 fold) | < 100 | –
2 | 5 to 50 | > 125 | > 50 | – | – | – | COC[C@@H](C1CC1)N(Cc1ccc(C(F)(F)F)cn1)C(=O)C(=O)Nc1ccn2ccnc2c1 [Compound 31, (R)—N^1-(1-cyclopropyl-2-methoxyethyl)-N^2-(imidazo[1,2-a]pyridin-7-yl)-N^1-((5-(trifluoromethyl)pyridin-2-yl)methyl)oxalamide] | B (IC50 ratio greater than or equal to 15 fold but lower than 30 fold) | 100 to 1000 | –
3 | < 5 | < 75 | > 50 | – | – | – | COc1ncc(NC(=O)C(=O)N(Cc2ccc(C(F)(F)F)cn2)[C@@H]2CCc3ccccc32)cc1C(N)=O [Compound 30, (R)-N1-(5-carbamoyl-6-methoxypyridin-3-yl)-N^2-(2,3-dihydro-1H-inden-1-yl)-N^2-((5-(trifluoromethyl)pyridin-2-yl)methyl)oxalamide] | A (IC50 ratio greater than or equal to 30 fold) | < 100 | –
4 | < 5 | < 75 | 5 to 50 | – | – | – | Nc1ncc(NC(=O)C(=O)N(Cc2ccccc2)Cc2ncc(F)cc2Cl)c2[nH]ncc12 [Compound 65, N-(4-amino-1H-pyrazolo[4,3-c]pyridin-7-yl)-N′-benzyl-N′-[(3-chloro-5-fluoro-2-pyridyl)methyl]oxamide] | C (IC50 ratio of less than 15 fold) | < 100 | –
5 | 5 to 50 | 75 to 125 | > 50 | – | – | – | CCc1cc(NC(=O)C(=O)N(Cc2ccc(C(F)(F)F)cn2)[C@@H]2CCc3ccccc32)cnc1N [Compound 36, (R)-N1-(6-amino-5-ethylpyridin-3-yl)-N2-(2,3-dihydro-1H-inden-1-yl)-N2-((5-(trifluoromethyl)pyridin-2-yl)methyl)oxalamide] | A (IC50 ratio greater than or equal to 30 fold) | < 100 | –
6 | < 5 | < 75 | > 50 | – | – | – | Cc1ccnc(CN(Cc2ccccc2)C(=O)C(=O)Nc2cnc(N)c3cn[nH]c23)c1 [Compound 156, N-(4-amino-1H-pyrazolo[4,3-c]pyridin-7-yl)-N′-benzyl-N′-[(4-methyl-2-pyridyl)methyl]oxamide] | A (IC50 ratio greater than or equal to 30 fold) | < 100 | –
7 | < 5 | < 75 | < 5 | – | – | – | Nc1ncc(NC(=O)C(=O)N(Cc2ccccn2)Cc2cccc3c2CCCO3)c2[nH]ncc12 [Compound 92, N-(4-amino-2H-pyrazolo[4,3-c]pyridin-7-yl)-N′-(chroman-5-ylmethyl)-N′-(2-pyridylmethyl)oxamide] | C (IC50 ratio of less than 15 fold) | < 100 | –
8 | – | – | – | < 5 | < 75 | 5 to 50 | Cc1cccnc1CN(C(=O)C(=O)Nc1cnc(N)c2cn[nH]c12)C(C)C(C)C (single isomer, unassigned) [Compound 171] | C (IC50 ratio of less than 15 fold) | – | < 100
9 | < 5 | 75 to 125 | > 50 | – | – | – | Nc1ncc(NC(=O)C(=O)N(Cc2ccc(C(F)(F)F)cn2)C2CC2)c2[nH]ncc12 [Compound 159, N-(4-Amino-1H-pyrazolo[4,3-c]pyridin-7-yl)-N′-cyclopropyl-N′-[[5-(trifluoromethyl)-2-pyridyl]methyl]oxamide] | B (IC50 ratio greater than or equal to 15 fold but lower than 30 fold) | < 100 | –
